One data set relates to HCV 1b-Con1 replicon. Description: HCV 1b-Con1 replicon assay in the presence of 5% FBS. The format is cell-based. To be noted: Hepatitis C virus. (In general: Replicon systems follow genome replication, usually without infectious particles.)
Data set [1] deals with HCV 2a, 2b, 3a and 4a replicons. Description: HCV 2a, 2b, 3a and 4a replicon assays in the absence of human plasma. The format is cell-based. The protocol: The inhibitory effects of the compounds of the invention on HCV replication can be determined by measuring activity of the luciferase reporter gene. For example, replicon-containing cells can be seeded into 96 well plates at a density of 5000 cells per well in 100 μl DMEM containing 5% FBS. The following day compounds can be diluted in dimethyl sulfoxide (DMSO) to generate a 200× stock in a series of eight half-log dilutions. The dilution series can then be further diluted 100-fold in the medium containing 5% FBS. Medium with the inhibitor is added to the overnight cell culture plates already containing 100 μl of DMEM with 5% FBS. In assays measuring inhibitory activity in the presence of human plasma, the medium from the overnight cell culture plates can be replaced with DMEM containing 40% human plasma and 5% FBS. […] Luciferin solution (100 μl, Promega) can be added to each well, and luciferase activity can be measured with a Victor II luminometer (Perkin-Elmer). The percent inhibition of HCV RNA replication can be calculated for each compound concentration and the EC50 value can be calculated using nonlinear regression curve fitting to the 4-parameter logistic equation and GraphPal Prism 4 software.

Data set [2] in a line: AUC value (pharmacokinetics). The settings on record: in vivo.

The structures appear in SMILES notation.

Regarding `COC(=O)N[C@H](C(=O)N1CCC[C@H]1c1nc2cc([C@H]3CC[C@H](c4ccc5[nH]c([C@@H]6CCCN6C(=O)[C@@H](NC(=O)OC)C(C)C)nc5c4)N3c3ccc(N4CCC(c5ccccc5)CC4)c(F)c3)ccc2[nH]1)C(C)C` [Example 3.20, methyl {(2S)-1-[(2S)-2-{5-[(2R,5R)-1-[3-fluoro-4-(4-phenylpiperidin-1-yl)phenyl]-5-{2-[(2S)-1-{(2S)-2-[(methoxycarbonyl)amino]-3-methylbutanoyl}pyrrolidin-2-yl]-1H-benzimidazol-5-yl}pyrrolidin-2-yl]-1H-benzimidazol-2-yl}pyrrolidin-1-yl]-3-methyl-1-oxobutan-2-yl}carbamate], the EC50 with HCV 1b-Con1 replicon was below 0.1 nM. Moreover, the “EC50 values, fold less than those of Example 4.25” value in data set [1] is given as “at least 15 fold”.

Take `COC(=O)N[C@H](C(=O)N1CCC[C@H]1c1nc2cc([C@H]3CC[C@H](c4cc5[nH]c([C@@H]6CCCN6C(=O)[C@@H](NC(=O)OC)C(C)C)nc5cc4F)N3c3ccc(C(C)(C)C)cc3)c(F)cc2[nH]1)C(C)C` [Example 6.1, methyl {(2S)-1-[(2S)-2-{5-[(2R,5R)-1-(4-tert-butylphenyl)-5-{5-fluoro-2-[(2S)-1-{(2S)-2-[(methoxycarbonyl)amino]-3-methylbutanoyl}pyrrolidin-2-yl]-1H-benzimidazol-6-yl}pyrrolidin-2-yl]-6-fluoro-1H-benzimidazol-2-yl}pyrrolidin-1-yl]-3-methyl-1-oxobutan-2-yl}carbamate]: the concentration giving a half-maximal response (EC50) in the data set on HCV 1b-Con1 replicon is below 0.1 nM. Further, in data set [2], the “AUC value, fold greater than that of Example 109 of the '301 application” value is reported as “about 9 fold”.

For the compound `COC(=O)N[C@H](C(=O)N1CCC[C@H]1c1nc2cc([C@H]3CC[C@H](c4ccc5[nH]c([C@@H]6CCCN6C(=O)[C@@H](NC(=O)OC)C(C)C)nc5c4)N3c3cc(F)c(N4CCC(c5ccccc5)CC4)c(F)c3)ccc2[nH]1)C(C)C` [Example 5.1, methyl {(2S)-1-[(2S)-2-{5-[(2R,5R)-1-[3,5-difluoro-4-(4-phenylpiperidin-1-yl)phenyl]-5-{2-[(2S)-1-{(2S)-2-[(methoxycarbonyl)amino]-3-methylbutanoyl}pyrrolidin-2-yl]-1H-benzimidazol-5-yl}pyrrolidin-2-yl]-1H-benzimidazol-2-yl}pyrrolidin-1-yl]-3-methyl-1-oxobutan-2-yl}carbamate], the EC50 with HCV 1b-Con1 replicon was below 0.1 nM. Also, the “EC50 values, fold less than those of Example 4.25” value in data set [1] is “at least 50 fold”. In addition, the “AUC value, fold greater than that of Example 2.9” value in data set [2] is listed as “about 30 fold”.

Consider `COC(=O)N[C@H](C(=O)N1C[C@@H](F)C[C@H]1c1nc2cc([C@H]3CC[C@H](c4ccc5[nH]c([C@@H]6C[C@H](F)CN6C(=O)[C@@H](NC(=O)OC)C(C)C)nc5c4)N3c3cc(F)c(N4CCCCC4)c(F)c3)ccc2[nH]1)C(C)C` [Example 3.8, methyl {(2S)-1-[(2S,4S)-2-{5-[(2R,5R)-1-[3,5-difluoro-4-(piperidin-1-yl)phenyl]-5-{2-[(2S,4S)-4-fluoro-1-{(2S)-2-[(methoxycarbonyl)amino]-3-methylbutanoyl}pyrrolidin-2-yl]-1H-benzimidazol-5-yl}pyrrolidin-2-yl]-1H-benzimidazol-2-yl}-4-fluoropyrrolidin-1-yl]-3-methyl-1-oxobutan-2-yl}carbamate], for which the EC50 in the data set with HCV 1b-Con1 replicon was below 0.1 nM.

Turning to `COC(=O)N[C@H](C(=O)N1CCC[C@H]1c1nc2cc([C@H]3CC[C@H](c4ccc5[nH]c([C@@H]6CCCN6C(=O)[C@@H](NC(=O)OC)C6CCOCC6)nc5c4)N3c3ccc(N4CCC(c5ccccc5)CC4)c(F)c3)ccc2[nH]1)C(C)C` [Example 3.21, methyl [(1S)-2-[(2S)-2-{5-[(2R,5R)-1-[3-fluoro-4-(4-phenylpiperidin-1-yl)phenyl]-5-{2-[(2S)-1-{(2S)-2-[(methoxycarbonyl)amino]-3-methylbutanoyl}pyrrolidin-2-yl]-1H-benzimidazol-5-yl}pyrrolidin-2-yl]-1H-benzimidazol-2-yl}pyrrolidin-1-yl]-2-oxo-1-(tetrahydro-2H-pyran-4-yl)ethyl]carbamate], in the data set with HCV 1b-Con1 replicon, the concentration for a half-maximal effect (EC50) was below 0.1 nM.

One may read the EC50 as the concentration needed to bring the measured effect to its halfway point.
